Measurements reported in PubChem BioAssay (NCI).
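All cell lines were grown in 96-well plates and treated with compound for 48 hours. Here, GI50 denotes the concentration required for 50% inhibition of growth. TGI marks complete inhibition of growth.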

Legend:
Test in all cases: NCI-60 cell line screen, 48 h
786-0 renal = system: 786-0 renal
A549 NSCLC = system: A549 NSCLC
ACHN renal = system: ACHN renal
BT-549 breast = system: BT-549 breast
CAKI-1 renal = system: CAKI-1 renal
CCRF-CEM leukemia = system: CCRF-CEM leukemia
COLO 205 colon = system: COLO 205 colon
DU-145 prostate = system: DU-145 prostate
EKVX NSCLC = system: EKVX NSCLC
HCC-2998 colon = system: HCC-2998 colon
HCT-116 colon = system: HCT-116 colon
HCT-15 colon = system: HCT-15 colon
HOP-62 NSCLC = system: HOP-62 NSCLC
HT29 colon = system: HT29 colon
IGROV1 ovarian = system: IGROV1 ovarian
K-562 leukemia = system: K-562 leukemia
M14 melanoma = system: M14 melanoma
MALME-3M melanoma = system: MALME-3M melanoma
MDA-MB-231 breast = system: MDA-MB-231 breast
MDA-MB-435 = system: MDA-MB-435
MOLT-4 leukemia = system: MOLT-4 leukemia
NCI-H460 lung = system: NCI-H460 lung
NCI-H522 lung = system: NCI-H522 lung
NCI/ADR-RES ovarian = system: NCI/ADR-RES ovarian
OVCAR-3 ovarian = system: OVCAR-3 ovarian
OVCAR-5 ovarian = system: OVCAR-5 ovarian
PC-3 prostate = system: PC-3 prostate
RPMI-8226 leukemia = system: RPMI-8226 leukemia
RXF 393 renal = system: RXF 393 renal
SF-268 CNS = system: SF-268 CNS
SF-295 CNS = system: SF-295 CNS
SF-539 CNS = system: SF-539 CNS
SK-MEL-2 melanoma = system: SK-MEL-2 melanoma
SK-OV-3 ovarian = system: SK-OV-3 ovarian
SN12C renal = system: SN12C renal
SNB-19 CNS = system: SNB-19 CNS
SNB-75 CNS = system: SNB-75 CNS
SR leukemia = system: SR leukemia
SW-620 colon = system: SW-620 colon
T-47D breast = system: T-47D breast
TK-10 renal = system: TK-10 renal
U251 CNS = system: U251 CNS
UACC-257 melanoma = system: UACC-257 melanoma
UACC-62 melanoma = system: UACC-62 melanoma
UO-31 renal = system: UO-31 renal
KM12 colon = system: KM12 colon
LOX IMVI melanoma = system: LOX IMVI melanoma
NCI-H226 lung = system: NCI-H226 lung
NCI-H23 lung = system: NCI-H23 lung
OVCAR-4 ovarian = system: OVCAR-4 ovarian
OVCAR-8 ovarian = system: OVCAR-8 ovarian
SK-MEL-28 melanoma = system: SK-MEL-28 melanoma
SK-MEL-5 melanoma = system: SK-MEL-5 melanoma

Question: What does the source list for Cc1nn2c(/C=N/N=C(N)N)c(-c3ccc(Cl)c([N+](=O)[O-])c3)nc2s1?
Answer: GI50 (786-0 renal): 0.249 µM; TGI (786-0 renal): 0.442 µM; GI50 (A549 NSCLC): 4.96 µM; TGI (A549 NSCLC): 17.5 µM; GI50 (ACHN renal): 0.966 µM; TGI (ACHN renal): 2.58 µM; GI50 (BT-549 breast): 21.6 µM; TGI (BT-549 breast): 48.3 µM; GI50 (CAKI-1 renal): 1.47 µM; TGI (CAKI-1 renal): 2.85 µM; GI50 (CCRF-CEM leukemia): 0.368 µM; TGI (CCRF-CEM leukemia): 0.751 µM; GI50 (COLO 205 colon): 0.457 µM; TGI (COLO 205 colon): 61.7 µM; GI50 (DU-145 prostate): 2.32 µM; TGI (DU-145 prostate): 4.98 µM; GI50 (EKVX NSCLC): 25.3 µM; TGI (EKVX NSCLC): 69.6 µM; GI50 (HCC-2998 colon): 1.42 µM; TGI (HCC-2998 colon): 2.91 µM; GI50 (HCT-116 colon): 0.192 µM; TGI (HCT-116 colon): 0.374 µM; GI50 (HCT-15 colon): 1.43 µM; TGI (HCT-15 colon): 3.72 µM; GI50 (HOP-62 NSCLC): 0.262 µM; TGI (HOP-62 NSCLC): 0.529 µM; GI50 (HT29 colon): 0.236 µM; GI50 (IGROV1 ovarian): 6.2 µM; TGI (IGROV1 ovarian): 22.1 µM; GI50 (K-562 leukemia): 2.98 µM; TGI (K-562 leukemia): 9.63 µM; GI50 (M14 melanoma): 1.72 µM; TGI (M14 melanoma): 3.3 µM; GI50 (MALME-3M melanoma): 2.44 µM; TGI (MALME-3M melanoma): 4.14 µM; GI50 (MDA-MB-231 breast): 2.03 µM; TGI (MDA-MB-231 breast): 3.66 µM; GI50 (MDA-MB-435): 0.204 µM; TGI (MDA-MB-435): 0.363 µM; GI50 (MOLT-4 leukemia): 2.88 µM; TGI (MOLT-4 leukemia): 5.61 µM; GI50 (NCI-H460 lung): 1.18 µM; GI50 (NCI-H522 lung): 7.04 µM; TGI (NCI-H522 lung): 46.7 µM; GI50 (NCI/ADR-RES ovarian): 3.61 µM; TGI (NCI/ADR-RES ovarian): 15 µM; GI50 (OVCAR-3 ovarian): 0.488 µM; TGI (OVCAR-3 ovarian): 1.52 µM; GI50 (OVCAR-5 ovarian): 1.42 µM; TGI (OVCAR-5 ovarian): 3.15 µM; GI50 (PC-3 prostate): 1.14 µM; TGI (PC-3 prostate): 2.83 µM; GI50 (RPMI-8226 leukemia): 0.791 µM; TGI (RPMI-8226 leukemia): 1.76 µM; GI50 (RXF 393 renal): 3.4 µM; GI50 (SF-268 CNS): 1.22 µM; GI50 (SF-295 CNS): 0.615 µM; TGI (SF-295 CNS): 1.94 µM; GI50 (SF-539 CNS): 2.07 µM; TGI (SF-539 CNS): 3.63 µM; GI50 (SK-MEL-2 melanoma): 2.53 µM; TGI (SK-MEL-2 melanoma): 6.46 µM; GI50 (SK-OV-3 ovarian): 2.85 µM; TGI (SK-OV-3 ovarian): 6.75 µM; GI50 (SN12C renal): 0.763 µM; TGI (SN12C renal): 1.58 µM; GI50 (SNB-19 CNS): 0.543 µM; TGI (SNB-19 CNS): > 100 µM; GI50 (SNB-75 CNS): 1.36 µM; TGI (SNB-75 CNS): 2.94 µM; GI50 (SR leukemia): 2.53 µM; TGI (SR leukemia): 4.9 µM; GI50 (SW-620 colon): 0.444 µM; TGI (SW-620 colon): 1.72 µM; GI50 (T-47D breast): 0.481 µM; GI50 (TK-10 renal): 2.06 µM; TGI (TK-10 renal): 3.56 µM; GI50 (U251 CNS): 0.285 µM; TGI (U251 CNS): 0.597 µM; GI50 (UACC-257 melanoma): 6.14 µM; TGI (UACC-257 melanoma): 11.7 µM; GI50 (UACC-62 melanoma): 2.06 µM; TGI (UACC-62 melanoma): 3.58 µM; GI50 (UO-31 renal): 20.9 µM; TGI (UO-31 renal): 41.1 µM

Question: What does the source list for CC12CCC([C@H](Nc3cc(C(F)(F)F)cc(C(F)(F)F)c3)C1=O)C2(C)C (stereo not given in full)?
Answer: TGI (786-0 renal): > 100 µM; TGI (A549 NSCLC): > 100 µM; TGI (ACHN renal): > 100 µM; TGI (BT-549 breast): > 100 µM; TGI (CAKI-1 renal): > 100 µM; TGI (COLO 205 colon): > 100 µM; TGI (DU-145 prostate): > 100 µM; TGI (EKVX NSCLC): > 100 µM; TGI (HCC-2998 colon): > 100 µM; TGI (HCT-116 colon): > 100 µM; TGI (HCT-15 colon): > 100 µM; TGI (HOP-62 NSCLC): > 100 µM; TGI (HT29 colon): > 100 µM; TGI (IGROV1 ovarian): > 100 µM; TGI (K-562 leukemia): > 100 µM; TGI (KM12 colon): > 100 µM; TGI (LOX IMVI melanoma): > 100 µM; TGI (M14 melanoma): > 100 µM; TGI (MALME-3M melanoma): > 100 µM; TGI (MDA-MB-231 breast): > 100 µM; TGI (MDA-MB-435): > 100 µM; TGI (MOLT-4 leukemia): > 100 µM; TGI (NCI-H226 lung): > 100 µM; TGI (NCI-H23 lung): > 100 µM; TGI (NCI/ADR-RES ovarian): > 100 µM; TGI (OVCAR-3 ovarian): > 100 µM; TGI (OVCAR-4 ovarian): > 100 µM; TGI (OVCAR-5 ovarian): > 100 µM; TGI (OVCAR-8 ovarian): > 100 µM; TGI (PC-3 prostate): > 100 µM; TGI (RXF 393 renal): 28 µM; TGI (SF-268 CNS): > 100 µM; TGI (SF-295 CNS): > 100 µM; TGI (SF-539 CNS): > 100 µM; TGI (SK-MEL-2 melanoma): > 100 µM; TGI (SK-MEL-28 melanoma): > 100 µM; TGI (SK-MEL-5 melanoma): > 100 µM; TGI (SK-OV-3 ovarian): > 100 µM; TGI (SNB-19 CNS): > 100 µM; TGI (SR leukemia): > 100 µM; TGI (SW-620 colon): > 100 µM; TGI (T-47D breast): > 100 µM; TGI (TK-10 renal): > 100 µM; TGI (UACC-257 melanoma): > 100 µM; TGI (UO-31 renal): > 100 µM
